# Measurements from patent US20230357419A1, “METHODS FOR TREATING OR […] DISORDERS” (priority 2022, published 2023).
# Key:
# C57BL/6J mice = experiment: Repeated nitroglycerin (NTG) administration-induced behavioral sensitization: facial mechanical thresholds (von Frey), hyperalgesic priming, facial pain score; type: in vivo, mouse; settings: female C57BL/6J
# Description: Repeated nitroglycerin (NTG) administration-induced behavioral sensitization: To model chronic migraine headache, mice received repetitive intraperitoneal (i.p.) injections of nitric oxide (NO) donor NTG (10 mg/kg and 10 ml/kg in saline with 1% propylene glycol) once every 2 days for 5 times as described previously. The control mice received vehicle (saline with 1% propylene glycol, 10 ml/kg) injections every 2 days. Facial mechanical thresholds were measured at baseline and two days after each injection (before the next treatment). After the facial mechanical threshold returned to the baseline level, mice received daily i.p. injections of low-dose NTG (0.1 mg/kg). Facial mechanical thresholds were measured every 2 days to assess hyperalgesic priming.
# The hair on the mouse forehead (above and between the eyes) was shaved the day before testing. […] A positive response was determined by the following criteria as previously described: mouse vigorously stroked its face with the forepaw, head withdrawal from the stimulus, or head shaking. […]
# Facial pain score—aversiveness to facial mechanical stimuli: To measure the aversiveness to facial mechanical stimuli, the responses of mice to individual von Frey filaments were scored based on the most aversive behavior they display: 0) no responses; 1) detection: eye squinting, facial skin crinkling and/or a small head shaking; 2) withdrawal: head withdrawal from the filament and/or forepaw stroking of face once; 3) vigorous forepaw stroking of face 2 or more times; and 4) vigorous head shaking and/or attacking the filament.
# For C57BL/6J mice, responses were measured to 0.04 gram (g), 0.07 g and 0.16 g von Frey filaments (3 applications each in ascending order). […]
# Mice received intraperitoneal (i.p.) injections of NTG (10 mg/kg) or vehicle (saline with 1% propylene glycol, 10 ml/kg) once every 2 days for 5 times as described previously. Facial mechanical thresholds were measured at baseline and two days after each injection. […]
# mice = settings: intrathecal, 3 μg; cited from earlier work
smiles,measurement,setting,value
Cc1ccc2c(c1)C1(CCN(CCc3nc(-c4ccccc4)oc3C)CC1)OC(=O)N2 [RS504393],NTG-induced acute or persistent facial skin hypersensitivity,"C57BL/6J mice; 3 μg in 10 μl under periorbital skin, 30 minutes before and 24 hours post-NTG",did not reduce NTG-induced acute or persistent facial skin hypersensitivity
same,facial mechanical threshold (NTG-induced persistent facial skin hypersensitivity),"C57BL/6J mice; 3 mg/kg i.p., 8 daily injections started after established hypersensitivity, day 5-11",returned to basal level after 2 days of RS504393 treatment
same,hyperalgesic priming (low-dose NTG-induced facial skin hypersensitivity),"C57BL/6J mice; 3 mg/kg i.p., 8 daily injections, low-dose NTG day 20-28",low-dose NTG injections still produced robust facial skin hypersensitivity
same,tibial fracture/cast immobilization-induced mechanical allodynia,mice,significantly attenuated tibial fracture/cast immobilization-induced mechanical allodynia
